Numbers after ± are expanded uncertainties.
How the values were obtained:
[1] = for mass density: 298.15 K, 101.33 kPa
[2] = Boiling temperature at pressure P; details: 101 kPa; Liquid; Distillation
[3] = refractive index (Na D-line) (dimensionless); details: 298.15 K; 101.33 kPa; Liquid; Standard Abbe refractometry

| Compound | mass density ([1]; Crystal, Pycnometric method) | Normal melting temperature ([1]; Crystal, visual observation) | mass density ([1]; Liquid, Vibrating tube method) | Boiling temperature at pressure P [2] | refractive index [3] |
| --- | --- | --- | --- | --- | --- |
| Oc1ccccc1O [1,2-benzenediol] | 1346 ± 3 kg/m3 | 105.70 ± 1.1 °C |  |  |  |
| CC(=O)CC(C)C [4-methylpentan-2-one] |  |  | 799 ± 2 kg/m3 | 116.60 ± 0.2 °C | 1.3965 ± 0.0008 |

Reference: the NIST ThermoML archive (doi:10.1021/je5005559)
